Source: US8445503B2, “Inhibitors of polo-like kinase” (Elan Pharmaceuticals, Inc., priority 2009, dated 2013)

Experiments:
Format in all cases: biochemical
GST-PLK3 = molecular target: T1, GST-PLK3 (Homo sapiens, UniProt Q9H4B4); assay: PLK TR-FRET peptide assay, PLK3; conditions: PLK TR-FRET peptide assay, GST-PLK3; read-out: Plk3 IC50
T1 construct: purchased CarnaBio

GST-PLK2 = molecular target: T2, GST-PLK2 (Homo sapiens, UniProt Q9NYY3); assay: PLK TR-FRET peptide assay, PLK2; conditions: for IC50: PLK TR-FRET peptide assay, GST-PLK2, read-out: Plk2 IC50
T2 construct: purchased CarnaBio

GST-PLK1 = GST-PLK1 (Homo sapiens, UniProt P53350); assay: PLK TR-FRET peptide assay, PLK1; conditions: read-out: Plk1 IC50
GST-PLK1, sequence (P53350 whole entry): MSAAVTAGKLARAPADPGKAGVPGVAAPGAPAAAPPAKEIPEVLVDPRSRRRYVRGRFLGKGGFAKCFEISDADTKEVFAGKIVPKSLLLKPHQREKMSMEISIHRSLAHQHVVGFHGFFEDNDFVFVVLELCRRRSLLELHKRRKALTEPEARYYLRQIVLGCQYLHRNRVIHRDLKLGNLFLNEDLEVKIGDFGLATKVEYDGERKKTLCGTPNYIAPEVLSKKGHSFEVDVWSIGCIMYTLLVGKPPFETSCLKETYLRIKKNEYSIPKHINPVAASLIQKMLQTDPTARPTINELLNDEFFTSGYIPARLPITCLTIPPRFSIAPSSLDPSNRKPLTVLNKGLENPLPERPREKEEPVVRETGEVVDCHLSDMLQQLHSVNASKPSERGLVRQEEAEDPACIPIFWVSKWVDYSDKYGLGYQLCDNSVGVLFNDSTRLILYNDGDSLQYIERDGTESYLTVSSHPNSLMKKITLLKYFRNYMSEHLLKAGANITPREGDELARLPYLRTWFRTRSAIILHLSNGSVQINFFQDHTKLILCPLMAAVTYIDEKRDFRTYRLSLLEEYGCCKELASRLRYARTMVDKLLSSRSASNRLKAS

T1 sequence (Q9H4B4 whole entry): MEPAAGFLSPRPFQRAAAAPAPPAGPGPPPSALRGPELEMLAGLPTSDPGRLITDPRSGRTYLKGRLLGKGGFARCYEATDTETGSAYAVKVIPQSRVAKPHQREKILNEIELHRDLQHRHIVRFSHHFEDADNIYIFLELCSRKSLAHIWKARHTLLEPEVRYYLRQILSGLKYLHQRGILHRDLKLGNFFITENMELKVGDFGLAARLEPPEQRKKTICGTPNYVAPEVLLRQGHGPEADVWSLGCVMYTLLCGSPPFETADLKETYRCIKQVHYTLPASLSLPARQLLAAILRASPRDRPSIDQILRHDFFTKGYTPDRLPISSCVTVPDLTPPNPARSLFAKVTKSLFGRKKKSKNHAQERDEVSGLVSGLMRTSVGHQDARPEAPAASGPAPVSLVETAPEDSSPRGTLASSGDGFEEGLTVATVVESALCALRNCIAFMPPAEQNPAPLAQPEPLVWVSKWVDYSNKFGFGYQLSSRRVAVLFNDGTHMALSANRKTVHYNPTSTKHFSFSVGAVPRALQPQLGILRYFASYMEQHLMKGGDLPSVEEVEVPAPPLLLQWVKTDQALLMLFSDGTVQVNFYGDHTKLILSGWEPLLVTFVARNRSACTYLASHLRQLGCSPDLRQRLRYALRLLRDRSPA
T2 sequence (Q9NYY3 whole entry): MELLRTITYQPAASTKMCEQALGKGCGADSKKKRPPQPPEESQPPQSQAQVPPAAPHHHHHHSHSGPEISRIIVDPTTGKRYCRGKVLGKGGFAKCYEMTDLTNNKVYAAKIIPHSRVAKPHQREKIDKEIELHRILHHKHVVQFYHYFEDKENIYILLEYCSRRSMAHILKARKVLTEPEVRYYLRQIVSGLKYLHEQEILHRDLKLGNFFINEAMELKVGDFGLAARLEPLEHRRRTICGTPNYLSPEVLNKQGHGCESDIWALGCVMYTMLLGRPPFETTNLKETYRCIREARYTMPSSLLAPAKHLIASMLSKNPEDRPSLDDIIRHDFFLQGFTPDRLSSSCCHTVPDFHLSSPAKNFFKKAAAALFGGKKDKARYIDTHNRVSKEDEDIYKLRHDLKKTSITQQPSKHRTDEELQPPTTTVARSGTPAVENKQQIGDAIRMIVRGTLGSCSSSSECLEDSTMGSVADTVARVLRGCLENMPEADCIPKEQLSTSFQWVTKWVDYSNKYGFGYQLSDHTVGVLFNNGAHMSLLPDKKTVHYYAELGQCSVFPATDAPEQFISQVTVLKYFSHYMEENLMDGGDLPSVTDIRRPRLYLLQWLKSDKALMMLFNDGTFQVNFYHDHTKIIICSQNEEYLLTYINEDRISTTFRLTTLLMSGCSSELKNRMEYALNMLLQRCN

| IC50 (GST-PLK3) [µM] | IC50 (GST-PLK2) [µM] | IC50 (GST-PLK1) [µM] | PLK2 activity relative to the opposite enantiomer / other isomer (GST-PLK2; comparison of resolved enantiomers, used to assign absolute configuration) | Structure (SMILES) |
| --- | --- | --- | --- | --- |
| < 1 | < 1 | < 1 | – | CC[C@@H]1C(=O)N(C)c2cnc(-c3cn[nH]c3-c3ccccn3)nc2N1C1CCCC1 [Example 306, (R)-8-cyclopentyl-7-ethyl-5-methyl-2-(5-(pyridin-2-yl)-1H-pyrazol-4-yl)-7,8-dihydropteridin-6(5H)-one] |
| < 1 | < 1 | < 1 | – | CC[C@@H]1CC[C@@]2(CC)C(=O)N(C)c3cnc(-n4ccnc4-c4ccccc4)nc3N12 [Example 309, (6aS,9R)-6a,9-diethyl-5-methyl-2-(2-phenyl-1H-imidazol-1-yl)-6a,7,8,9-tetrahydropyrrolo[2,1-h]pteridin-6(5H)-one] |
| < 1 | < 1 | < 1 | – | CC[C@@H]1C(=O)N(C)c2cnc(-c3sc(N)nc3-c3ccc(F)cc3)nc2N1C(C)C [Example 318, (R)-2-(2-amino-4-(4-fluorophenyl)thiazol-5-yl)-7-ethyl-8-isopropyl-5-methyl-7,8-dihydropteridin-6(5H)-one] |
| 1 to 10 | < 1 | 1 to 10 | – | CC[C@@H]1C(=O)N(C)c2cnc(-c3scnc3-c3ccc(F)cc3)nc2N1C(C)C [Example 319, (R)-7-ethyl-2-(4-(4-fluorophenyl)thiazol-5-yl)-8-isopropyl-5-methyl-7,8-dihydropteridin-6(5H)-one] |
| 1 to 10 | < 1 | < 1 | – | CC[C@@H]1C(=O)N(C)c2cnc(-n3ncnc3-c3ccn[nH]3)nc2N1C(C)C [Example 327, (R)-2-(5-(1H-pyrazol-5-yl)-1H-1,2,4-triazol-1-yl)-7-ethyl-8-isopropyl-5-methyl-7,8-dihydropteridin-6(5H)-one] |
| > 50 | 1 to 10 | > 50 | – | CC[C@@H]1C(=O)N(C)c2cnc(-n3ccnc3-c3ccc(F)cc3)nc2N1C1COC1 [Example 328, (R)-7-ethyl-2-(2-(4-fluorophenyl)-1H-imidazol-1-yl)-5-methyl-8-(oxetan-3-yl)-7,8-dihydropteridin-6(5H)-one] |
| > 50 | 1 to 10 | > 50 | – | CCC1C(=O)N(C)c2cnc(-n3ccnc3)nc2N1c1cn[nH]c1 (stereo not shown) [Example 343, 7-ethyl-2-(1H-imidazol-1-yl)-5-methyl-8-(1H-pyrazol-4-yl)-7,8-dihydropteridin-6(5H)-one] |
| 10 to 50 | < 1 | > 50 | more active compound | CC[C@@]12COCCN1c1nc(-c3cn[nH]c3-c3nccs3)ncc1N(C)C2=O [Example 344, (S)-6a-ethyl-5-methyl-2-(5-(thiazol-2-yl)-1H-pyrazol-4-yl)-6a,7,9,10-tetrahydro-[1,4]oxazino[3,4-h]pteridin-6(5H)-one] |

| Structure (SMILES) | IC50 (GST-PLK3) [µM] | IC50 (GST-PLK2) [µM] | IC50 (GST-PLK1) [µM] | PLK2 activity relative to the opposite enantiomer / other isomer (GST-PLK2; comparison of resolved enantiomers, used to assign absolute configuration) |
| --- | --- | --- | --- | --- |
| CN1C(=O)C23CCC(CC2)N3c2nc(-n3ccnc3-c3ccccc3)ncc21 [Example 308, 5-methyl-2-(2-phenyl-1H-imidazol-1-yl)-8,9-dihydro-7H-6a,9-ethanopyrrolo[2,1-h]pteridin-6(5H)-one] | > 50 | 1 to 10 | 10 to 50 | – |
| CN1C(=O)C23C=CC(CC2)N3c2nc(-n3ccnc3-c3ccccc3)ncc21 (stereo not shown) [Example 326, 5-methyl-2-(2-phenyl-1H-imidazol-1-yl)-9H-6a,9-ethanopyrrolo[2,1-h]pteridin-6(5H)-one] | > 50 | 1 to 10 | > 50 | – |
| CCC1C(=O)N(C)c2cnc(-n3ccnc3-c3ccc(F)cc3)nc2N1c1cnn(COCC[Si](C)(C)C)c1 (stereo not shown) [Example 342, 7-ethyl-2-(2-(4-fluorophenyl)-1H-imidazol-1-yl)-5-methyl-8-(1-((2-(trimethylsilyl)ethoxy)methyl)-1H-pyrazol-4-yl)-7,8-dihydropteridin-6(5H)-one] | 1 to 10 | < 1 | 10 to 50 | – |
